Source: publication PMC11003450, “Structure-property relationships of fluorinated carboxylic acid bioisosteres” (Bioorganic & medicinal chemistry letters, 2023)
Like-named read-outs stand apart in the source and are kept apart here.

Key:
[1] = supplement csv; previously described derivatives A-Y; ref [3]-[5]; cited from earlier work
[2] = PAMPA (parallel artificial membrane permeability assay, ran by Analiza); format: in vitro ADME; details: for Papp: PAMPA
Description: In this work, in order to compare the properties of fluorinated carboxylic acid surrogates with those of other commonly used nonfluorinated bioisosteres, we present the design and synthesis of a focused set of matched molecular pairs (MMPs), which include examples of substituted alcohols and phenols featuring one or more fluorine atoms, and the characterization of these compounds for key physicochemical properties such as acidity (pKa), lipophilicity (logD7.4 and permeability (logPapp) in a parallel artificial membrane permeability assay (PAMPA). The data presented allow for an assessment of the impact of incorporation of fluorine on the physicochemical properties of carboxylic acid surrogates.

[3] = pKa by potentiometric titration (Sirius T3)
[4] = logD7.4 by potentiometric titration (Sirius T3); details: n-octanol/aqueous buffer
[5] = supplement csv; previously described phenylpropionic acid derivatives A-Y; ref [3]-[5]; cited from earlier work
[6] = class by Pe, read-out: PAMPA Permeability
[7] = read-out: PAMPA Pe (effective permeability)
[8] = pKa (anilinium/aniline), anilinium/aniline pKa, Table 1
[9] = pKa, acidic group (carboxylic acid, alcohol or phenol), Table 1
[10] = pH 7.4, logD7.4, n-octanol / aqueous buffer pH 7.4, Table 1
[11] = pH 7.4, logD7.4, supplement csv, compounds 1, 2, 3-10

Compound: Oc1cc(Cc2ccccc2)on1 [R]
- pKa [1]: 5.36

Compound: Nc1ccc(Cc2cccc(O)c2OC(F)(F)F)cc1 [Compound 8]
- PAMPA % retention (membrane retention) [2]: 0.36%
- Papp [2, 6]: > 1.5 ×10⁻⁶ cm/s
- Papp [2, 7]: 8.63 ×10⁻⁶ cm/s
- pKa [3, 8]: 4.58
- pKa [3, 9]: 9.67
- logD [4, 10]: 2.29
- logD [4, 11]: 2.29

Compound: CN(C)S(=O)(=O)NC1(CCc2ccccc2)CSC1 [Compound H12]
- logD7.4 [5]: 2.83
- pKa [1]: 11.93

Compound: Nc1ccc(Cc2cccc(O)c2SC(F)(F)F)cc1 [Compound 9]
- Papp [2, 6]: > 1.5 ×10⁻⁶ cm/s
- Papp [2, 7]: 7.28 ×10⁻⁶ cm/s
- pKa [3, 8]: 4.24
- pKa [3, 9]: 9.51
- logD [4, 10]: 2.72
- logD [4, 11]: 2.72

Compound: CS(=O)(=O)NC1(CCc2ccccc2)CSC1 [Compound H10]
- logD7.4 [5]: 2.44
- pKa [1]: 10.45

Compound: CN(C)S(=O)(=O)Nc1cc(-c2ccccc2)on1 [Compound H21]
- logD7.4 [5]: 0.42
- pKa [1]: 5.62

Compound: OC1(CCc2ccccc2)COC1 [Y]
- pKa [1]: >12

Compound: O=C1NC(=O)C(Cc2ccccc2)S1 (stereo not shown) [L]
- pKa [1]: 6.19

Compound: Nc1ccc(Cc2cccc(O)c2C(F)(F)F)cc1 [Compound 7]
- PAMPA % retention (membrane retention) [2]: 0.195%
- Papp [2, 6]: > 1.5 ×10⁻⁶ cm/s
- Papp [2, 7]: 13.8 ×10⁻⁶ cm/s
- pKa [3, 8]: 4.69
- pKa [3, 9]: 8.85
- logD [4, 10]: 3.17
- logD [4, 11]: 3.17

Compound: CN(C)S(=O)(=O)NC1(CCc2ccccc2)CS(=O)(=O)C1 [Compound H18]
- logD7.4 [5]: 1.82
- pKa [1]: 9.58

Compound: O=C1NC(=O)C(Cc2ccccc2)O1 (stereo not shown) [M]
- pKa [1]: 5.86

Compound: CN(C)S(=O)(=O)Nc1cn(-c2ccccc2)nn1 [Compound H24]
- logD7.4 [5]: 0.69
- pKa [1]: 6.42

Compound: CN(C)S(=O)(=O)NC(=O)CCc1ccccc1 [Compound H2]
- logD7.4 [5]: 0.12
- pKa [1]: 5.79

Compound: O=c1[nH]c(CCc2ccccc2)ns1 [O]
- pKa [1]: 6.5

Compound: CS(=O)(=O)Nc1cn(-c2ccccc2)nn1 [Compound H22]
- logD7.4 [5]: 0.06
- pKa [1]: 6.34

Compound: O=S(=O)(NC1(CCc2ccccc2)C[S+]([O-])C1)c1ccccc1 (stereo not shown) [Compound H14]
- logD7.4 [5]: 0.76

Compound: Oc1c(F)ccc(Cc2ccccc2)c1F [Compound W2]
- pKa [1]: 7.05

Compound: CS(=O)(=O)Nc1cc(-c2ccccc2)on1 [Compound H19]
- logD7.4 [5]: -0.42
- pKa [1]: 5.22

Compound: Oc1c(F)cc(Cc2ccccc2)cc1F [Compound W1]
- pKa [1]: 7.19

Compound: [O-][S+](Cc1ccccc1)c1ccccc1O (stereo not shown) [Compound W4]
- pKa [1]: 7.7

Compound: O=C1CCC(Cc2ccccc2)=C1O [Compound U1]
- pKa [1]: 8.88

Compound: O=C(CCc1ccccc1)NO [Compound A1]
- pKa [1]: 8.18

Compound: c1ccc(CCc2nnn[nH]2)cc1 [K]
- logD7.4 [5]: -0.36
- pKa [1]: 5.09

Compound: CS(=O)(=O)NC(=O)NCc1ccccc1 [I]
- logD7.4 [5]: -1.19
- pKa [1]: 5.04

Compound: O=C(O)CCc1ccccc1 [Compound 1]
- Papp [2, 6]: > 1.5 ×10⁻⁶ cm/s

Compound: O=S(=O)(NC1(CCc2ccccc2)COC1)c1ccccc1 [Compound H8]
- logD7.4 [5]: 2.76
- pKa [1]: 10.29

Compound: O=C1CC(c2ccccc2)C=C1O (stereo not shown) [Compound U2]
- pKa [1]: 8.28

Compound: O=[PH](O)CCc1ccccc1 [D]
- pKa [1]: 1.98

Compound: OC1(CCc2ccccc2)CSC1 [Compound X1]
- pKa [1]: >12

Compound: O=S(=O)(Nc1cn(-c2ccccc2)nn1)c1ccccc1 [Compound H23]
- logD7.4 [5]: 1.06
- pKa [1]: 5.93

Compound: Oc1ccccc1SCc1ccccc1 [Compound W3]
- logD7.4 [5]: 3.78
- pKa [1]: 9.06

Compound: O=C1CCC(O)=C1Cc1ccccc1 [Compound T3]
- logD7.4 [5]: -0.6
- pKa [1]: 4.44

Compound: O=S1(=O)CC(CCc2ccccc2)(NS(=O)(=O)c2ccccc2)C1 [Compound H17]
- logD7.4 [5]: 1.89
- pKa [1]: 10.22

Compound: NS(=O)(=O)CCc1ccccc1 [Compound G1]
- pKa [1]: 10.04

Compound: CC(=O)NOCCc1ccccc1 [Compound B2]
- pKa [1]: 9.58

Compound: Nc1ccc(CCC(O)(C(F)F)C(F)F)cc1 [Compound 4]
- PAMPA % retention (membrane retention) [2]: 0.02%
- Papp [2, 6]: > 1.5 ×10⁻⁶ cm/s
- Papp [2, 7]: 10.1 ×10⁻⁶ cm/s
- pKa ([3]; difference between experimental and calculated pKa, experimental vs ChemAxon): 1 to 1.7
- pKa [3, 8]: 4.79
- pKa [3, 9]: > 12
- logD [4, 10]: 1.46
- logD [4, 11]: 1.46

Compound: Nc1ccc(CCC(O)C(F)F)cc1 (stereo not shown) [Compound 6]
- PAMPA % retention (membrane retention) [2]: 0.015%
- Papp [2, 6]: > 1.5 ×10⁻⁶ cm/s
- Papp [2, 7]: 10.2 ×10⁻⁶ cm/s
- pKa [3, 8]: 4.87
- pKa [3, 9]: > 12
- logD [4, 10]: 0.92
- logD [4, 11]: 0.92

Compound: O=c1[nH]c(CCc2ccccc2)no1 [N]
- pKa [1]: 5.73

Compound: CC(=O)NC1(CCc2ccccc2)CS(=O)(=O)C1 [Compound H6]
- logD7.4 [5]: 1.18
- pKa [1]: >12

Compound: CN(C)S(=O)(=O)NC1(CCc2ccccc2)C[S+]([O-])C1 (stereo not shown) [Compound H15]
- logD7.4 [5]: 1.45
- pKa [1]: 10.33

Compound: CS(=O)(=O)NC1(CCc2ccccc2)C[S+]([O-])C1 (stereo not shown) [Compound H13]
- logD7.4 [5]: 0.87
- pKa [1]: 9.87

Compound: Nc1ccc(CCC(=O)O)cc1 [Compound 2]
- PAMPA % retention (membrane retention) [2]: 0.05%
- Papp [2, 6]: < 1.5 ×10⁻⁶ cm/s
- pKa [3, 8]: 5.17
- pKa [3, 9]: 4.12
- logD [4, 10]: -2.13
- logD [4, 11]: -2.13

Compound: CC1=C(O)C(Cc2ccccc2)CC1=O (stereo not shown) [Compound T2]
- logD7.4 [5]: -0.33
- pKa [1]: 4.47

Compound: Nc1ccc(Cc2cccc(O)c2[S+]([O-])C(F)(F)F)cc1 (stereo not shown) [Compound 10]
- PAMPA % retention (membrane retention) [2]: 0.24%
- Papp [2, 6]: > 1.5 ×10⁻⁶ cm/s
- Papp [2, 7]: 10.5 ×10⁻⁶ cm/s
- pKa [3, 8]: 4.21
- pKa [3, 9]: 7.93
- logD [4, 10]: 1.96
- logD [4, 11]: 2

Compound: Nc1ccc(CCC(O)C(F)(F)F)cc1 (stereo not shown) [Compound 5]
- Papp [2, 6]: > 1.5 ×10⁻⁶ cm/s
- Papp [2, 7]: 11.7 ×10⁻⁶ cm/s
- pKa [3, 8]: 4.72
- pKa ([3]; pKa (anilinium/aniline), supplement csv, first value of cell, anilinium/aniline): 4.9
- pKa [3, 9]: 11.7
- logD [4, 10]: 1.83
- logD [4, 11]: 1.83

Compound: O=C1C=C(O)CC1Cc1ccccc1 (stereo not shown) [Compound T1]
- logD7.4 [5]: -0.7
- pKa [1]: 4.01

Compound: Oc1cccc(Cc2ccccc2)c1C(F)(F)F [Compound 32]
- pKa ([3]; difference in Δ pKa between 32 and 7, Δ = isostere minus corresponding -COOH, 32 vs matched pair 7): 0.46
- pKa [3, 9]: 8.91
- logD [4, 10]: 4.29

Compound: [O-][S+]1CC(O)(CCc2ccccc2)C1 (stereo not shown) [Compound X2]
- pKa [1]: >12

Compound: S=c1[nH]c(CCc2ccccc2)no1 [Q]
- pKa [1]: 3.58

Compound: CONC(=O)CCc1ccccc1 [Compound B1]
- pKa [1]: 9.47

Compound: CC(=O)N(O)CCc1ccccc1 [Compound A2]
- pKa [1]: 8.83

Compound: O=S(=O)(Nc1cc(-c2ccccc2)on1)c1ccccc1 [Compound H20]
- logD7.4 [5]: 0.99
- pKa [1]: 6.62

Compound: CS(=O)(=O)NC1(CCc2ccccc2)CS(=O)(=O)C1 [Compound H16]
- logD7.4 [5]: 1.03
- pKa [1]: 9.44

Compound: O=S(O)CCc1ccccc1 [F]
- pKa [1]: 2.1

Compound: O=C1CC(=O)C(Cc2ccccc2)N1 (stereo not shown) [S]
- pKa [1]: 6.08

Compound: CN(C)S(=O)(=O)NC1(CCc2ccccc2)COC1 [Compound H9]
- logD7.4 [5]: 1.96
- pKa [1]: 11.02

Compound: O=S(=O)(NC1(CCc2ccccc2)CSC1)c1ccccc1 [Compound H11]
- logD7.4 [5]: 2.96
- pKa [1]: >12

Compound: O=S(=O)(Cc1ccccc1)c1ccccc1O [Compound W5]
- pKa [1]: 7.12

Compound: CC1(NS(=O)(=O)CCc2ccccc2)COC1 [Compound H5]
- logD7.4 [5]: 1.58
- pKa [1]: 10.45
